Laboratory results from patent US20180256557A1, “PHARMACEUTICAL COMBINATION COMPRISING (A) THE ALPHA-ISOFORM SPECIFIC PI3K INHIBITOR ALPELISIB (BYL719) AND (B) AN AKT INHIBITOR, PREFERABLY MK-2206, AFURESERTIB OR UPROSERTIB, AND THE USE THEREOF IN THE TREATMENT/PREVENTION OF CANCER” (priority 2015, published 2018).

How the values were obtained:
Assay type in all cases: cell-based
[1] = tested on: CL-11 colorectal cancer cell line; assay: Cell proliferation, cell count by microscopy; conditions: single agent; CL-11 (KRAS); 96 h treatment
Experimental: (§1) COMPOUNDS A and B were dissolved in 100% DMSO (Sigma, Catalog number D2650) at concentrations of 20 mM and stored at −20° C. until use. Compounds were arrayed in drug master plates (Greiner, Catalog number 788876) and serially diluted 3-fold (7 steps) at 2000× concentration.
(§2) Colorectal cancer cell lines used for this study were obtained, cultured and processed from commercial vendors ATCC, CellBank Australia, DSMZ, ECACC, HSRRB, and RIKEN (Table 1). All cell line media were supplemented with 10% FBS (HyClone, Catalog number SH30071.03). Media for LIM2405 and LIM2551 was additionally supplemented with 0.6 μg/mL Insulin (SIGMA, Catalog number 19278), 1 μg/mL Hydrocortisone (SIGMA, Catalog number H0135), and 10 μM 1-Thioglycerol (SIGMA, Catalog number M6145).
(§3) Cell lines were cultured in 37° C. and 5% CO2 incubator and expanded in T-75 flasks. In all cases cells were thawed from frozen stocks, expanded through ≥1 passage using 1:3 dilutions, counted and assessed for viability using a ViCell counter (Beckman-Coulter) prior to plating. To split and expand cell lines, cells were dislodged from flasks using 0.25% Trypsin-EDTA (GIBCO, Catalog number 25200). All cell lines were determined to be free of mycoplasma contamination as determined by a PCR detection methodology performed at Idexx Radil (Columbia, Mo., USA) and correctly identified by detection of a panel of SNPs.
(§4) To test the effect of the combination of COMPOUND A and COMPOUND B on cell proliferation cells were plated in black 384-well microplates with clear bottom (Matrix/Thermo Scientific, Catalog number 4332) in 50 μL media per well at cell densities between 500 and 1250 cells/well (Table 1) and allowed to incubate at 37 degrees, 5% CO2 for 24 h. After 24 h one 384-well plate per cell line was prepared for cell counting by microscopy (see below) without receiving treatment (=‘baseline’). The other cell plates were treated by transferring 25 nL of the 2000× compound from drug master plates using an ATS acoustic liquid dispenser (ECD Biosystems) and resulting in a final 1× concentration. COMPOUND A was used over a final concentration range of 13 nM-10 μM, and COMPOUND B was used over a final concentration range of 13 nM-10 μM (7 1:3 dilution steps). For the combination of COMPOUND A with COMPOUND B the single agents were combined at a fixed ratio of 1:1 at each dilution resulting in 7 combination treatments. […] After compound addition 50 nL of 2 mM CellEvent Caspase-3/7 Green Detection Reagent (ThermoFisher, Catalog number C10423) were added to one of the three replicates using the HP D300 Digital Dispenser (Tecan). Caspase 3/7 induction was measured as a proxy for apoptosis induced by the treatments. Cells were treated for 72 h to 96 h depending on their doubling time (Table 1), and Caspase 3/7 activation was measured every 24 h by microscopy using an InCell Analyzer 2000 (GE Healthcare) equipped with a 4× objective and FITC excitation/emission filters. At the end of the treatment cells were prepared for cell counting by microscopy. Cells were fixed and permeabilised for 45 minutes in 4% PFA (Electron Microscopy Sciences, Catalog number 15714), 0.12% TX-100 (Electron Microscopy Sciences, Catalog number 22140) in PBS (Boston Bioproducts, Catalog number BM-220). After washing cells three times with PBS their DNA was stained for 30 minutes with Hoechst 33342 (ThermoFisher, Catalog number H3570) at a final concentration of 4 μg/ml. Cells were washed three times with PBS and then plates were heat-sealed using a PlateLoc (Agilent Technologies) with aluminum seals (Agilent Technologies, Catalog number 06644-001) and stored at 4° C. until imaging. All cells per well/treatment were captured in a single image by fluorescence microscopy using an InCell Analyzer 2000 (GE Healthcare) equipped with a 4× objective and DAPI excitation/emission filters. […]

[2] = tested on: COLO-205 colorectal cancer cell line; assay: Cell proliferation, cell count by microscopy; conditions: Homo sapiens; single agent; COLO-205 (BRAF); 72 h treatment
Experimental: as §1, §2, §3, §4

[3] = tested on: COLO-320 colorectal cancer cell line; assay: Cell proliferation, cell count by microscopy; conditions: Homo sapiens; single agent; COLO-320 (no driver mutation listed); 72 h treatment
Experimental: as §1, §2, §3, §4

[4] = tested on: COLO-678 colorectal cancer cell line; assay: Cell proliferation, cell count by microscopy; conditions: Homo sapiens; single agent; COLO-678 (KRAS); 96 h treatment
Experimental: as §1, §2, §3, §4

[5] = tested on: CW-2 colorectal cancer cell line; assay: Cell proliferation, cell count by microscopy; conditions: single agent; CW-2 (no driver mutation listed); 96 h treatment
Experimental: as §1, §2, §3, §4

[6] = tested on: DLD-1 colorectal cancer cell line; assay: Cell proliferation, cell count by microscopy; conditions: Homo sapiens; single agent; DLD-1 (KRAS, PIK3CA); 72 h treatment
Experimental: as §1, §2, §3, §4

[7] = tested on: GP2d colorectal cancer cell line; assay: Cell proliferation, cell count by microscopy; conditions: single agent; GP2d (KRAS, PIK3CA); 72 h treatment
Experimental: as §1, §2, §3, §4

[8] = tested on: HCT-116 colorectal cancer cell line; assay: Cell proliferation, cell count by microscopy; conditions: Homo sapiens; single agent; HCT-116 (KRAS, PIK3CA); 72 h treatment
Experimental: as §1, §2, §3, §4

[9] = tested on: HT-29 colorectal cancer cell line; assay: Cell proliferation, cell count by microscopy; conditions: Homo sapiens; single agent; HT-29 (BRAF, PIK3CA); 72 h treatment
Experimental: as §1, §2, §3, §4

[10] = tested on: HT55 colorectal cancer cell line; assay: Cell proliferation, cell count by microscopy; conditions: Homo sapiens; single agent; HT55 (no driver mutation listed); 96 h treatment
Experimental: as §1, §2, §3, §4

[11] = tested on: LIM2405 colorectal cancer cell line; assay: Cell proliferation, cell count by microscopy; conditions: single agent; LIM2405 (BRAF); 72 h treatment
Experimental: as §1, §2, §3, §4

[12] = tested on: LIM2551 colorectal cancer cell line; assay: Cell proliferation, cell count by microscopy; conditions: single agent; LIM2551 (BRAF, PIK3CA); 72 h treatment
Experimental: as §1, §2, §3, §4

[13] = tested on: LS-180 colorectal cancer cell line; assay: Cell proliferation, cell count by microscopy; conditions: Homo sapiens, LS180; single agent; LS-180 (KRAS, PIK3CA); 72 h treatment
Experimental: as §1, §2, §3, §4

[14] = tested on: LS411N colorectal cancer cell line; assay: Cell proliferation, cell count by microscopy; conditions: Homo sapiens, LS-411N; single agent; LS411N (BRAF); 72 h treatment
Experimental: as §1, §2, §3, §4

[15] = tested on: LoVo colorectal cancer cell line; assay: Cell proliferation, cell count by microscopy; conditions: Homo sapiens; single agent; LoVo (KRAS); 96 h treatment
Experimental: as §1, §2, §3, §4

[16] = tested on: NCI-H508 colorectal cancer cell line; assay: Cell proliferation, cell count by microscopy; conditions: Homo sapiens; single agent; NCI-H508 (PIK3CA); 72 h treatment
Experimental: as §1, §2, §3, §4

[17] = tested on: OUMS-23 colorectal cancer cell line; assay: Cell proliferation, cell count by microscopy; conditions: single agent; OUMS-23 (BRAF); 72 h treatment
Experimental: as §1, §2, §3, §4

[18] = tested on: RKO colorectal cancer cell line; assay: Cell proliferation, cell count by microscopy; conditions: single agent; RKO (BRAF, PIK3CA); 72 h treatment
Experimental: as §1, §2, §3, §4

[19] = tested on: SNU-C2A colorectal cancer cell line; assay: Cell proliferation, cell count by microscopy; conditions: single agent; SNU-C2A (KRAS); 96 h treatment
Experimental: as §1, §2, §3, §4

[20] = tested on: SW48 colorectal cancer cell line; assay: Cell proliferation, cell count by microscopy; conditions: Homo sapiens; single agent; SW48 (MEK1); 96 h treatment
Experimental: as §1, §2, §3, §4

[21] = tested on: SW480 colorectal cancer cell line; assay: Cell proliferation, cell count by microscopy; conditions: Homo sapiens; single agent; SW480 (KRAS); 72 h treatment
Experimental: as §1, §2, §3, §4

[22] = tested on: SW620 colorectal cancer cell line; assay: Cell proliferation, cell count by microscopy; conditions: Homo sapiens, SW-620; single agent; SW620 (KRAS); 72 h treatment
Experimental: as §1, §2, §3, §4

[23] = tested on: SW837 colorectal cancer cell line; assay: Cell proliferation, cell count by microscopy; conditions: Homo sapiens; single agent; SW837 (KRAS); 72 h treatment
Experimental: as §1, §2, §3, §4

[24] = tested on: 23 colorectal cancer cell lines; assay: Cell proliferation over the panel of cell lines; conditions: single agent; for IC50 values over the cell line panel: summary in words of FIG. 1 and Table 2
Experimental: as §1, §2, §3
To test the effect of the combination of COMPOUND A and COMPOUND B on cell proliferation cells were plated in black 384-well microplates with clear bottom (Matrix/Thermo Scientific, Catalog number 4332) in 50 μL media per well at cell densities between 500 and 1250 cells/well (Table 1) and allowed to incubate at 37 degrees, 5% CO2 for 24 h. […] Caspase 3/7 induction was measured as a proxy for apoptosis induced by the treatments. Cells were treated for 72 h to 96 h depending on their doubling time (Table 1), and Caspase 3/7 activation was measured every 24 h by microscopy using an InCell Analyzer 2000 (GE Healthcare) equipped with a 4× objective and FITC excitation/emission filters. […]

IC50 [1] | IC50 [2] | IC50 [3] | IC50 [4] | IC50 [5] | IC50 [6] | IC50 [7] | IC50 [8] | IC50 [9] | IC50 [10] | IC50 [11] | IC50 [12] | IC50 [13] | IC50 [14] | IC50 [15] | IC50 [16] | IC50 [17] | IC50 [18] | IC50 [19] | IC50 [20] | SMILES | also measured
> 10 µM | 5.4 µM | 5.1 µM | > 10 µM | 6.4 µM | > 10 µM | 0.6 µM | > 10 µM | 3.8 µM | 1 µM | > 10 µM | 1.4 µM | > 10 µM | 3 µM | 0.1 µM | 1.5 µM | > 10 µM | 3.9 µM | > 10 µM | > 10 µM | NC1(c2ccc(-c3nc4ccn5c(=O)[nH]nc5c4cc3-c3ccccc3)cc2)CCC1 [COMPOUND B, 8-[4-(1-Aminocyclobutyl)phenyl]-9-phenyl-1,2,4-triazolo[3,4-f][1,6]naphthyridin-3(2H)-one, reference compound] | IC50 [21]: > 10 µM; IC50 [22]: > 10 µM; IC50 [23]: > 10 µM; IC50 values over the cell line panel [24]: micromolar
3.2 µM | > 10 µM | 7.3 µM | > 10 µM | > 10 µM | > 10 µM | 0.3 µM | 6.9 µM | 1.9 µM | 1.1 µM | > 10 µM | 1.4 µM | 7.1 µM | > 10 µM | 7.5 µM | 1.3 µM | > 10 µM | 2.6 µM | > 10 µM | 3.2 µM | Cc1nc(NC(=O)N2CCC[C@H]2C(N)=O)sc1-c1ccnc(C(C)(C)C(F)(F)F)c1 [COMPOUND A, (S)-Pyrrolidine-1,2-dicarboxylic acid 2-amide 1-({4-methyl-5-[2-(2,2,2-trifluoro-1,1-dimethyl-ethyl)-pyridin-4-yl]-thiazol-2-yl}-amide)] | IC50 [21]: > 10 µM; IC50 [22]: > 10 µM; IC50 [23]: 9.3 µM; growth inhibition of PIK3CA mutant cell lines compared to PIK3CA wild type cell lines ([24]; one-tailed t-test on normalized cell counts (FIG. 3)): significantly stronger; IC50 values over the cell line panel [24]: micromolar
